One series has as its system Staphylococcus aureus. In words: Antimicrobial activity against staphylococcus aureus by broth dilution method. The format is functional. Background: Dilution methods test growth across graded concentrations, often in twofold steps.
The subject of a further series is Mus musculus. Put plainly: Antibacterial activity against Streptococcus pneumoniae ARC548 infected C57BL/6 mouse lung at 25 mg/kg, po after 2 days relative to Linezolid. The format is functional.
Another series relates to Streptococcus pneumoniae. In words: Antimicrobial activity against streptococcus pneumoniae by broth dilution method. The format is functional.
The next series has as its system Haemophilus influenzae. In words: Antimicrobial activity against Haemophilus influenzae by broth dilution method. It counts as functional.
For series [1], the target named is T1, Amine oxidase [flavin-containing] A (Homo sapiens, UniProt P21397).
T1 sequence (P21397 whole entry): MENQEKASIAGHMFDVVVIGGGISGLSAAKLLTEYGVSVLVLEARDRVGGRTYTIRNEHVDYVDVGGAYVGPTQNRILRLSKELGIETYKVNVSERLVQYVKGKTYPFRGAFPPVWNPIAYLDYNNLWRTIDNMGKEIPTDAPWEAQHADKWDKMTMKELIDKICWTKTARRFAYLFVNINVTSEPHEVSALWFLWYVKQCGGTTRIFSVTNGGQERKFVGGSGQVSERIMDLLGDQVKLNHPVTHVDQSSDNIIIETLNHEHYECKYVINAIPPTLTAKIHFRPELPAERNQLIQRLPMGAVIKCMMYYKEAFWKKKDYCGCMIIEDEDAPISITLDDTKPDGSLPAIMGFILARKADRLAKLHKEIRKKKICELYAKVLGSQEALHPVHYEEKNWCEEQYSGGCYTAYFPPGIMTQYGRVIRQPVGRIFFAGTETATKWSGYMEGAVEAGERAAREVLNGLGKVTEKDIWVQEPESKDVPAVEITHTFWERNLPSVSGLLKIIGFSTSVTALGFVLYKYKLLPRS
In words: Inhibition human liver MAOA activity.

Series [2] is described as follows: Plasma clearance in rat. The format is ADME, organism-based.
Series [3] in a line: Volume of distribution in rat. The settings on record: in vivo, read-out: Vss. The format is ADME, organism-based.
A short description of series [4]: Oral bioavailability in rat at 40 mg/kg. The settings on record: in vivo. It counts as ADME, organism-based.
Series [5] in a line: Half life in rat. The format is ADME, organism-based. The settings on record: in vivo.

A word on the clearance: it is the rate of elimination divided by the concentration. Read a low clearance as a low capacity for elimination. By bioavailability is commonly meant the share of a dose that reaches the circulation, judged against a reference dose that is usually intravenous. A low value points to poor availability. By half-life is commonly meant the time needed for the level to fall by half in the phase considered. Low readings indicate rapid decline, high ones slow decline.

Values after ≈ are worked out from the molar mass of the structure shown. Some results are limits rather than exact numbers.

For the compound `Cc1cc(-c2ccc(N3C[C@H](CNc4ccon4)OC3=O)cc2F)on1`, the MIC with Staphylococcus aureus stood at 0.5 µg/mL (≈ 1.4 µM); in the series on Streptococcus pneumoniae, 0.25 µg/mL (≈ 0.698 µM); with Haemophilus influenzae it was 16 µg/mL (≈ 44.7 µM). Also, in the series on Mus musculus, the “Lung antibacterial activity relative to linezolid” value worked out at 33%. The compound further gave a Ki in series [1] of 0.42 µmol.

Turning to `O=C1O[C@@H](Cn2ccnn2)CN1c1ccc(-c2c[nH]nn2)c(F)c1`, the figures for the MIC against Staphylococcus aureus, in the series with Streptococcus pneumoniae and in the series with Haemophilus influenzae were 64 µg/mL (≈ 194 µM), 32 µg/mL (≈ 97.2 µM) and greater than 64 µg/mL, respectively.

On to `CC(=O)NC[C@H]1CN(c2ccc(-c3cc(C)no3)c(F)c2)C(=O)O1`, for which the figures for the MIC against Staphylococcus aureus, in the series on Streptococcus pneumoniae and in the series on Haemophilus influenzae were 0.5 µg/mL (≈ 1.5 µM), 0.25 µg/mL (≈ 0.75 µM) and 4 µg/mL (≈ 12 µM), respectively. Besides, in the series on Mus musculus, the “Lung antibacterial activity relative to linezolid” value is 22%. The Ki in [1] worked out at 0.95 µmol.

For the compound `Cc1cn(C[C@H]2CN(c3ccc(-c4cc(C)no4)c(F)c3)C(=O)O2)nn1`, the MIC in the series on Staphylococcus aureus worked out at 0.5 µg/mL (≈ 1.4 µM); in the series with Streptococcus pneumoniae, 0.25 µg/mL (≈ 0.7 µM); with Haemophilus influenzae it was 4 µg/mL (≈ 11.2 µM). The compound also gave a clearance in series [2] of 5 mL/min/kg. The Vd in [3] came out at 0.5 L/kg. The same compound had a bioavailability in series [4] of 87%. This compound had a half-life in [5] of 1.2 h. The Ki in [1] came to 22.6 µmol.

As to `Cc1cc(-c2ccc(N3C[C@H](Cn4ccnn4)OC3=O)cc2F)on1`, the MIC in the series with Staphylococcus aureus was found to be 0.5 µg/mL (≈ 1.46 µM); in the series on Streptococcus pneumoniae, 0.25 µg/mL (≈ 0.728 µM); against Haemophilus influenzae it was 8 µg/mL (≈ 23.3 µM). This compound also displayed a clearance in series [2] of 5 mL/min/kg. The “Lung antibacterial activity relative to linezolid” value in the series on Mus musculus came out at 92%. The Vd in [3] was 0.6 L/kg. Moreover, the bioavailability in series [4] was determined as 82%. In series [5], this compound had a half-life of 1.7 h. This compound also had a Ki in series [1] of 2.9 µmol.

For the compound `CC(=O)NC[C@H]1CN(c2ccc(-c3c[nH]nn3)c(F)c2)C(=O)O1`, the MIC came out at 4 µg/mL (≈ 12.5 µM) with Staphylococcus aureus, 2 µg/mL (≈ 6.26 µM) in the series with Streptococcus pneumoniae and 8 µg/mL (≈ 25.1 µM) in the series with Haemophilus influenzae.

`CC(=O)NC[C@H]1CN(c2ccc(N3CCOCC3)c(F)c2)C(=O)O1` [LINEZOLID]: the “Lung antibacterial activity relative to linezolid” value in the series on Mus musculus was found to be 75%. Moreover, the MIC with Haemophilus influenzae was 8 µg/mL (≈ 23.7 µM). The Ki in series [1] turned out to be 20 µmol.

On to `O=C1O[C@@H](CNc2ccon2)CN1c1ccc(-c2c[nH]nn2)c(F)c1`, for which the MIC with Staphylococcus aureus amounted to 8 µg/mL (≈ 23.2 µM); with Streptococcus pneumoniae, 16 µg/mL (≈ 46.5 µM); in the series with Haemophilus influenzae it was 16 µg/mL (≈ 46.5 µM).

On to `N#CCn1cc(-c2ccc(N3C[C@H](Cn4ccnn4)OC3=O)cc2F)nn1`, for which the MIC is 4 µg/mL (≈ 10.9 µM) in the series on Staphylococcus aureus, 2 µg/mL (≈ 5.43 µM) in the series with Streptococcus pneumoniae and 32 µg/mL (≈ 86.9 µM) with Haemophilus influenzae.

For the compound `Cn1cc(-c2ccc(N3C[C@H](Cn4ccnn4)OC3=O)cc2F)nn1`, the MIC against Staphylococcus aureus was 32 µg/mL (≈ 93.2 µM); in the series on Streptococcus pneumoniae it was 16 µg/mL (≈ 46.6 µM); against Haemophilus influenzae, greater than 64 µg/mL.

The record behind these values is ChEMBL document CHEMBL1146287, “New carbon-linked azole oxazolidinones with improved potency and pharmacokinetics” (Bioorg Med Chem Lett, 2007).
